In US10072038B2, “Crystal of ammonium N-acetylneuraminate anhydrate, and process for producing same” (KYOWA HAKKO BIO CO., LTD., priority 2015, dated 2018):
Values belong to the compound of their own block, whether it stands above or below them.

How the values were obtained:
[1] = Measurement of degree of solubility in water (HPLC of supernatant); format: physicochemical; conditions: FIG. 5; compared with crystal of known NeuAc dihydrate
Method: (2) Measurement of Degree of Solubility
A crystal of NeuAc ammonium salt anhydrate, or a crystal of known NeuAc dihydrate was added to water adjusted to the respective temperatures until each crystal remained undissolved and after keeping the solution for a sufficient time under stirring, the supernatant containing no crystal was collected, and the concentration of NeuAc therein was measured using the following HPLC conditions.
Guard column: Shodex SUGAR SH-G ϕ6.0×50 mm
Column: SUGAR SH1011 ϕ8.0×300 mm×2 columns in series
Column temperature: 60° C.
Buffer: an aqueous 0.005 mol/L sulfuric acid solution
Detector: UV detector (wavelength: 210 nm)
The degrees of solubility in water of the crystal of NeuAc ammonium salt anhydrate obtained above and a crystal of NeuAc dihydrate are illustrated in FIG. 5.

[2] = Stability under high temperature conditions judged from melting point; format: physicochemical; conditions: inferred from melting point 166.2° C. vs around 105° C. of known monohydrate
Method: (5) Measurement of Melting Point
The measurement was performed using Melting Point M-565 (manufactured by BUCHI) according to the instruction book.
In addition, the melting point of the crystal of NeuAc ammonium salt anhydrate is 166.2° C. and is higher than the melting point of around 105° C. of known NeuAc ammonium salt monohydrate salt.

[3] = Weight change (moisture absorption) under an atmosphere of 25° C. and a humidity of 60%; format: physicochemical; conditions: humidity 60%; for weight increase due to moisture absorption: up to 24 h
Method: With respect to the crystal of NeuAc ammonium salt anhydrate and the noncrystalline amorphous NeuAc ammonium salt acquired in Reference Example 1, the weight change under an atmosphere of 25° C. and a humidity of 60% was compared, and the results are shown in Table 5.

[4] = pH of aqueous solution of the crystal; format: physicochemical; conditions: aqueous solution at 100 g/L in terms of NeuAc ammonium salt
Method: As for the pH, an aqueous solution at 100 g/L in terms of NeuAc ammonium salt was measured.

[5] = Degree of coloration when stored in a closed system at 60° C. (transmittance at 430 nm); format: physicochemical; conditions: for Transmittance T % 430 nm: stored in closed system at 60° C., solution 100 g/L in terms of an anhydrate, 1 cm
Method: With respect to the crystal of NeuAc ammonium salt anhydrate and a crystal of known NeuAc dihydrate, the degree of coloration when stored in a closed system at 60° C. was compared, and the results are shown in Table 8. The degree of coloration is expressed by transmittance T % 430 nm=100×10^−A (A=Abs: 430 nm, 1 cm), which was obtained by dissolving each crystal at 100 g/L in terms of an anhydrate and performing measurement for the solution.

[6] = normal temperature; cited from earlier work
[7] = cited from earlier work

Rate of weight change ([3]; elapsed time 0 h): 0.00%
Rate of weight change ([3]; elapsed time 3 h): −0.08%
Rate of weight change ([3]; elapsed time 7 h): −0.10%
Rate of weight change ([3]; elapsed time 24 h): −0.06%
weight increase due to moisture absorption ([3]; listed as crystal of NeuAc ammonium salt anhydrate): a weight increase was not observed
pH ([4]; listed as Example 1): 7.07
pH ([4]; listed as Example 2): 6.60
pH ([4]; listed as Example 3): 6.39
coloration during storage ([5]; closed system at 60° C., compared with crystal of known NeuAc dihydrate): extremely low
Transmittance T % 430 nm ([5]; 0 days): 99.73%
Transmittance T % 430 nm ([5]; 3 days): 98.87%
Transmittance T % 430 nm ([5]; 6 days): 98.49%
Structure (SMILES): CC(=O)N[C@H]1[C@H]([C@H](O)[C@H](O)CO)OC(O)(C(=O)O)C[C@@H]1O.N (stereo partly drawn) [Crystal of ammonium salt, ammonium N-acetylneuraminate anhydrate]
degree of solubility in water [1]: large degree of solubility compared with the degree of solubility of the crystal of known NeuAc dihydrate
stability under high temperature conditions [2]: stable even under high temperature conditions

Transmittance T % 430 nm ([5]; 0 days): 100.1%
Transmittance T % 430 nm ([5]; 3 days): 73.26%
Transmittance T % 430 nm ([5]; 6 days): 50.46%
Structure (SMILES): CC(=O)N[C@H]1[C@H]([C@H](O)[C@H](O)CO)OC(O)(C(=O)O)C[C@@H]1O (stereo partly drawn) [Dihydrate crystal, N-Acetylneuraminic acid, reference compound]
degree of solubility [6]: about 100 g/L
storage stability (discoloration of crystal and solution) [7]: gradually discolored to dark brown

Rate of weight change ([3]; elapsed time 3 h, ammonium salt): 6.58%
Rate of weight change ([3]; elapsed time 7 h, ammonium salt): 10.4%
Rate of weight change ([3]; elapsed time 24 h, ammonium salt): 13.5%
deliquescence ([3]; when 24 hours had passed): deliquesced
Structure (SMILES): CC(=O)N[C@H]1[C@H]([C@H](O)[C@H](O)CO)OC(O)(C(=O)O)C[C@@H]1O.N (stereo partly drawn) [Noncrystalline amorphous, NeuAc ammonium salt, reference compound]
weight increase due to moisture absorption ([3]; listed as noncrystalline amorphous NeuAc ammonium salt, ammonium salt): marked weight increase due to moisture absorption
